Test results from ChEMBL document CHEMBL1151599, “Probing the importance of the second chloroethyl arm of a benzoic acid mustard derivative of an imidazole-containing analogue of distamycin” (Bioorg Med Chem Lett, 1994).

Tests used:
K562 = test: Cytotoxicity against the growth of chronic human myeloid leukemia K562 cells in culture following 1 hour exposure of compound using MTT assay; type: functional, cell-based; details: K562, 1 h
Nucleic Acid [1] = test: Apparent DNA binding constant to Poly (dA-dT) was determined using an ethidium displacement assay; type: nucleic-acid assay
Nucleic Acid [2] = test: Apparent DNA binding constant to Poly (dG-dC) was determined using an ethidium displacement assay; type: nucleic-acid assay
Nucleic Acid [3] = test: Apparent DNA binding constant to T4 DNA was determined using an ethidium displacement assay; type: nucleic-acid assay
Nucleic Acid [4] = test: Apparent DNA binding constant to calf thymus DNA was determined using an ethidium displacement assay; type: nucleic-acid assay; details: Bos taurus

SMILES | IC50 (K562) [µM] | K app (Nucleic Acid [1]) [M⁻¹] | K app (Nucleic Acid [2]) [M⁻¹] | K app (Nucleic Acid [3]) [M⁻¹] | K app (Nucleic Acid [4]) [M⁻¹]
CN(C)CCNC(=O)c1nc(NC(=O)c2nc(NC(=O)c3nc(NC(=O)c4ccc(NCCCl)cc4)cn3C)cn2C)cn1C | > 100 | 550000 | 900000 | 3.89e+06 | 2.27e+06
CN(C)CCNC(=O)c1nc(NC(=O)c2nc(NC(=O)c3nc(NC(=O)c4ccc(N(CCCl)CCCl)cc4)cn3C)cn2C)cn1C | – | 550000 | 500000 | 170000 | 590000
